Test results taken from US20070026431A1, “Modulation of MAPK-mediated phosphorylation and/or FBXW8-mediated ubiquitinylation of cyclin D1 in modulation of cellular proliferation” (priority 2005, published 2007).
Where two headings read alike, the source gives them in different places. Peptide text beside a SMILES is read from it. * marks the point of attachment. Cbz = O=C(OCc1ccccc1)*

Assays:
cyclin D1 protein [1] = assay: Cyclin D1 expression and half-life after 4-HT in ΔB-Raf:ER^TAM NIH 3T3 cells; assay type: cell-based, mouse
Experimental: (§1) Panel B: Western blot analysis. […] Panel C: Western blot analysis after 4-HT treatment. […] A half-life of cyclin D1 protein was calculated.
(§2) In order to investigate whether this was due to accelerated turnover of the cyclin D1 protein, the half-life of endogenous expression of cyclin D1 protein (FIG. 8, Panel E) was assessed.

MAPK (ERK1/2) = assay: Western blot after 4-HT treatment, ΔB-Raf:ER^TAM NIH 3T3 cells; assay type: cell-based, mouse; details: 10 nM 4-HT
Experimental: as §1, §2

[2] = system: polyubiquitinated cyclin D1; assay: Polyubiquitination of cyclin D1, IP-immunoblot in HA-ubiquitin transfected S phase HCT 116 cells; assay type: cell-based, human
Experimental: FIG. 3 illustrates that cyclin D1 is destabilized during S phase through the ubiquitin-proteasome pathway in cancers. Panels A and B: Pulse-chase analysis of cyclin D1 protein in NIH 3T3 (Panel A) and HCT 116 (Panel B) cells. When most of the populations were in G1 phase (9 hrs for NIH3T3 and 6 hrs for HCT 116) or in S phase (21 hrs for NIH3T3 and 15 hrs for HCT 116), cells were released from quiescence and then labeled with 35^S-methionine for 1 hour. Subsequently these cells were chased with cold methionine for the indicated times and then lysed. Cyclin D1 was immunoprecipitated and then analyzed with SDS-PAGE. Autoradiography was performed. Levels of metabolically labeled-cyclin D1 were estimated by quantitative scanning using the Quantity One (Bio-Rad) software and blotted on the graph to determine the half-life of cyclin D1. Panel C: illustrates that the turnover of cyclin D1 protein is mediated by the ubiquitin-proteasome pathway. […]
To confirm that the destabilization of cyclin D1 in the S phase is related to polyubiquitination, HCT 116 colon cancer cells were transfected with (lanes 1-3) or without (lane 4) HA-tagged ubiquitin cDNA and then synchronized to the S phase (FIG. 3, Panel D). […] A group of slower migrating bands was detected by the HA antibody exclusively in the anti-cyclin D1 immunoprecipitates in the presence of ubiquitin (lane 2 and 3). […]

[3] = system: cyclin D1 protein (Thr286 phosphorylation); assay: Western blot of cyclin D1 and p-Thr286 cyclin D1 in HA-CD1 SW480 cells treated with kinase inhibitors; assay type: cell-based, human
Experimental: Immunoblot analysis was performed. […] Asterisks indicate endogenous cyclin D1 expression. Panel B: Western blot analysis with fractionated nuclear proteins. […] Cell-cycle distribution was shown as bar graphs. Nuclear proteins were fractionated at indicated time points. […] Levels of total and phosphorylated cyclin D1 were determined.
(§3) Immunoblotting Analysis. […] SDS-PAGE was described previously (Tetsu and McCormick, 2003).
To identify the kinase responsible for cyclin D1 Thr286 phosphorylation, small molecule inhibitors of GSK3β, CDK4, and MEK were used to determine whether they were able to alter the phosphorylation and stability of ectopically expressed WT cyclin D1 protein in cultured cells (FIG. 5, Panels C and D). Ectopically expressed WT cyclin D1 protein was used to assess the stability of cyclin D1 protein. The endogenous expression was not assessed because transcription of cyclin D1 is regulated by the Ras/MAPK signaling. Therefore, endogenous expression of cyclin D1 is unable to be detected following inhibition of MAPK activities through the MEK/MAPK inhibitors or serum starvation (Tetsu et al., 2003. Cancer Cell. 3, 233-45).

GSK3α/β = assay: Phosphorylation-specific blot for GSK3α/β, SW480 cells; assay type: cell-based, human; details: 24 hours of treatment
cyclin D1 protein [4] = assay: Western blot of cyclin D1 with or without MG132 during cell cycle progression, NIH 3T3 cells; assay type: cell-based, mouse
Experimental: HCT 116 and NIH 3T3 cells were treated with the proteasome inhibitor MG132 at each time point during cell cycle progression (FIG. 3, Panel C).

cyclin D1 protein [5] = assay: Western blot of cyclin D1 with or without MG132 during cell cycle progression, HCT 116 cells; assay type: cell-based, human; details: MG132 2 hours
Experimental: (§4) FIG. 3 illustrates that cyclin D1 is destabilized during S phase through the ubiquitin-proteasome pathway in cancers. Panels A and B: Pulse-chase analysis of cyclin D1 protein in NIH 3T3 (Panel A) and HCT 116 (Panel B) cells. When most of the populations were in G1 phase (9 hrs for NIH3T3 and 6 hrs for HCT 116) or in S phase (21 hrs for NIH3T3 and 15 hrs for HCT 116), cells were released from quiescence and then labeled with 35^S-methionine for 1 hour. Subsequently these cells were chased with cold methionine for the indicated times and then lysed. Cyclin D1 was immunoprecipitated and then analyzed with SDS-PAGE. Autoradiography was performed. Levels of metabolically labeled-cyclin D1 were estimated by quantitative scanning using the Quantity One (Bio-Rad) software and blotted on the graph to determine the half-life of cyclin D1. Panel C: illustrates that the turnover of cyclin D1 protein is mediated by the ubiquitin-proteasome pathway. […] Western blot was performed with cyclin D1 and p-actin antibodies. Panel D: Polyubiquitination of cyclin D1 protein. HCT 116 colon cancer cells were transfected with (lane 1-3) or without (lane 4) ubiquitin cDNA and then synchronized to S phase through the sequential manipulation of serum starvation and stimulation. Cells were treated with (lane 3 and 4) or without (lane 1 and 2) 25 μM MG132 for an hour. […]

cyclin D1 protein [6] = assay: Western blot of cyclin D1 with or without MG132 during cell cycle progression, WI-38 cells; assay type: cell-based, human; details: MG132 2 hours
Experimental: as §4

MEK/MAPK [7] = system: MEK/MAPK
Experimental: Immunoblot analysis was performed. […] Panels C and D: HA-WT CD1 (D) or Panel E: HA-CD1 T286A ectopically expressing SW480 cells were treated with highly specific small molecule inhibitors for GSK3β CDK4 and MEK. LiCl and BIO, AG12275, and U0126 were used for GSK, CDK4 and MEK/MAPK inhibitions respectively. Twenty-four hours after the treatment, cells were harvested and western-blot analyses were performed with a cyclin D1 and the p-Thr286 cyclin D1 antibodies. The phosphorylated cyclin D1 expression was magnified and normalized to its total (phosphorylated plus non-phosphorylated protein) expression and shown in the graphs in Panel C. Inhibition of the kinase activities by drugs was assessed using phosphorylation-specific antibodies for GSK3α/β, Rb and ERK1/2 on the same membrane respectively. […] HA-WT CD1 SW480 cells were treated with combining U0126 with LiCl.
After 24 hours of treatment with these highly specific small molecule inhibitors, expression levels of cyclin D1 and its phosphorylated form were analyzed (FIG. 5, Panel C). Levels of phosphorylated cyclin D1 were estimated by quantitative scanning with Quantity One (Bio Rad) software and were normalized to levels of total cyclin D1 protein (FIG. 5, Panel C bottom graphs).
Cells were next treated with the MEK inhibitor U0126.

MEK/MAPK [8] = assay: Western blot of phosphorylated ERK (pERK) in HCT 116 cells; assay type: cell-based, human
Experimental: (§5) FIG. 11 illustrates that ERK/MAPK is identified as the major kinase that is responsible for the stability of cyclin D1 protein. Panels A-F: Pulse-chase analysis of cyclin D1 protein in HCT 116 cells after exposure to the MEK inhibitor U0126 (A-C) or the GSK3 inhibitor BIO (D-F). Exponentially growing HCT 116 cells were treated with either DMSO or 10 μM of U0126 (A-C) for 30 minutes, or DMSO or 5 μM of BIO (D-F) for 24 hours. Panels A and D: Cells were pulse-labeled with ^35S-methionine for 1 hour. Subsequently these cells were chased with cold methionine for the indicated times, and then lysed respectively. Cyclin D1 was immunoprecipitated and then analyzed with SDS-PAGE. Autoradiography was performed. Levels of metabolically labeled-cyclin D1 were estimated by quantitative scanning using the Quantity One (Bio-Rad) software and blotted on the graph to determine the half-life of cyclin D1. Panels B and E: Western blot analysis. The membrane was blotted with a cyclin D1 Thr286 phosphorylation specific (pThr286), total cyclin D1, a phosphorylation specific ERK, and total ERK antibodies (B), or a pThr286, cyclin D1, a GSKα/β phosphorylation specific, and GSK3β antibodies (E). Panels C and F: Cell cycle distributions were shown. […]

[9] = system: HCT 116 colon cancer cells; assay: Flow-cytometric cell cycle analysis, HCT 116 cells; assay type: cell-based, human; details: U0126 30 minutes
Experimental: Cell cycle analysis was carried out as described previously (Tetsu et al. (1999) Nature 398: 422-6; Tetsu et al. (2003) Cancer Cell 3: 233-45.

[10] = system: cyclin D1 protein (Thr286 phosphorylation); assay: Western blot of total cyclin D1 and pThr286 in HCT 116 cells after U0126 or GSK3 inhibitor; assay type: cell-based, human
Experimental: FIG. 11 illustrates that ERK/MAPK is identified as the major kinase that is responsible for the stability of cyclin D1 protein. Panels A-F: Pulse-chase analysis of cyclin D1 protein in HCT 116 cells after exposure to the MEK inhibitor U0126 (A-C) or the GSK3 inhibitor BIO (D-F). Exponentially growing HCT 116 cells were treated with either DMSO or 10 μM of U0126 (A-C) for 30 minutes, or DMSO or 5 μM of BIO (D-F) for 24 hours. Panels A and D: Cells were pulse-labeled with ^35S-methionine for 1 hour. Subsequently these cells were chased with cold methionine for the indicated times, and then lysed respectively. Cyclin D1 was immunoprecipitated and then analyzed with SDS-PAGE. Autoradiography was performed. Levels of metabolically labeled-cyclin D1 were estimated by quantitative scanning using the Quantity One (Bio-Rad) software and blotted on the graph to determine the half-life of cyclin D1. Panels B and E: Western blot analysis. The membrane was blotted with a cyclin D1 Thr286 phosphorylation specific (pThr286), total cyclin D1, a phosphorylation specific ERK, and total ERK antibodies (B), or a pThr286, cyclin D1, a GSKα/β phosphorylation specific, and GSK3β antibodies (E). Panels C and F: Cell cycle distributions were shown. Panel G: Western blot analysis following transfection of various forms of HA-tagged cyclin D1 expression vectors in both NIH 3T3 mouse fibroblast (left) and HCT 116 colon cancer (right) cells. In lane 5 and 10, cells were treated with 5 μM of BIO for further 24 hours following transfection of the ΔD CD1 mutant.
as §3
To determine the contribution of ERK/MAPK to the stability of cyclin D1 in cancer cells, MAPK activity was inhibited with the MEK inhibitor U0126 (Favata et al., 1998. J Bio Chem. 273, 18623-32; Davies et al., 2000. Biochem J. 351, 95-105). Exponentially growing HCT 116 colon cancer cells were treated with U0126 for 30 minutes (FIG. 11, Panels A-C).
In contrast, no effect on phosphorylation status and stability of cyclin D1 protein through inhibition of GSK3α/β ([…], Panels D-F) were detected. […] Cycling HCT 116 colon cancer cells were treated with BIO for 24 hours (FIG. 11, Panels D-F). A phosphorylation specific antibody to GSK3α and β was used to measure their endogenous activities because phosphorylations of GSK3α at Tyr279 and GSK3β at Tyr216 are intramolecular autophosphorylation events in the cells. Thus, phosphorylation status reflects their kinase activities (Cole et al., 2004. Biochem J. 377, 249-55).

cyclin D1 protein [11] = details: HA-WT cyclin D1 SW480 cells; U0126 24 hours, then CHX, chased 3 hours
Experimental: FIG. 8 illustrates that MAPK regulates stability and relocalization of cyclin D1 protein. Panels A and B: Half-life analysis of HA-CD1 WT after exposure to U0126. Panel A: Exponentially growing HA-WT cyclin D1 SW480 cells were exposed to U0126 for 24 hours and subsequently treated with CHX and chased for 3 hours. Cells were harvested at different times and protein blot was performed (upper panel). Cyclin D1 expression was quantified and the half-life was calculated respectively. Panel B: Western blot analysis.
Immunoblotting Analysis. […] NE-PER nuclear and cytoplasmic extraction reagents (Pierce) were used for nuclear and cytoplasmic fractionation. […] Western blots were developed by enhanced chemiluminescence (Amersham or Upstate). […] Intensities of bands were quantified using Gel Doc 600 and Quantity One software (BioRad).
Exponentially growing HA-WT cyclin D1 SW480 cells were exposed to U0126 for 24 hours and subsequently treated with CHX and chased for 3 hours. […] Cyclin D1 expression was quantified and the half-life was calculated (FIG. 8, Panel A bottom graph).

[12] = system: cyclin D1 / E3 ligase FBXW8; details: HCT 116 transfected with FBXW8, cyclin D1 and CDK4; 10 μM U0126 30 minutes
Experimental: Panel D: Immunoprecipitated-immunoblotting analysis. […] Panels D and E: Exponentially growing HCT 116 colon cancer cells were transiently transfected with Flag epitope-tagged FBXW8 DNA plasmid together with HA-tagged cyclin D1 and CDK4 expression vectors. Twenty-four hours later cells were treated with DMSO (−) or 10 μM of U0126 (+) for 30 minutes and then harvested. Cell lysates were immunoprecipitated with either a Flag (FBXW8) antibody or a control IgG and immunoblotted with cyclin D1, pThr286, and Flag (FBXW8) antibodies (left panel). Western blot for input controls (lysate) were provided (right panel).
Immunoprecipitation and Immunoblotting Analysis. […] Following antibodies were used for immunoprecipitation; Flag (M2 Agarose-conjugated, Sigma), cyclin D1 (A-12, Agarose-conjugated, Santa Cruz), CDK4 (H-303 or C-22 Agarose-conjugated, Santa Cruz), CDK6 (C-21, Santa Cruz), FLA (M2 Agarose-conjugated, Sigma), and HA (Y-11 Agarose-conjugated, Santa Cruz). Immunoblotting was performed using antibodies described above.
FBXW8 DNA plasmid together with cyclin D1 and CDK4 expression vectors were transiently transfected in exponentially growing HCT 116 colon cancer cells. After 24 hours, cells were treated with U0126 to inhibit MEK/MAPK signaling for 30 minutes. Subsequently cells were collected and an immunoprecipitated-immunoblotting analysis was performed (FIG. 12, Panels D and E).

cyclin D1 protein [13] = assay: Pulse-chase analysis of cyclin D1 protein in HCT 116 cells; assay type: cell-based, human; details: exponentially growing HCT 116; 10 μM U0126 30 minutes
Experimental: as §5, with “D1.” for “D1. Panels B and E: Western blot analysis. The membrane was blotted with a cyclin D1 Thr286 phosphorylation specific (pThr286), total cyclin D1, a phosphorylation specific ERK, and total ERK antibodies (B), or a pThr286, cyclin D1, a GSKα/β phosphorylation specific, and GSK3β antibodies (E). Panels C and F: Cell cycle distributions were shown.”
FIG. 18 illustrates that knockdown of FBXW8, or its partner CUL1 or CUL7 expression through siRNA stabilizes cyclin D1 expression in HCT 116 colon cancer cells. […] Cyclin D1 was immunoprecipitated and then analyzed with SDS-PAGE. Levels of metabolically labeled-cyclin D1 were estimated by quantitative scanning using the Quantity One software (Bio-Rad) and blotted on the graph to determine the half-life of cyclin D1 (D).
Pulse-Chase Analysis. […] Cyclin D1 was immunoprecipitated and then analyzed with SDS-PAGE. […]

[14] = HCT 116 transfected with FBXW8, cyclin D1 and CDK4, 10 μM U0126 30 minutes
[15] = exponentially growing HCT 116, U0126 30 minutes
[16] = HA-WT CD1 SW480 cells, U0126 24 hours

Compound: 4-hydroxy-tamoxifen [4-HT]
- half-life of cyclin D1 protein (T1/2) (cyclin D1 protein [1]; exponentially growing cells, 10 nM 4-HT, then CHX, chased 3 hours): 20.6 min
- cyclin D1 expression in S phase (cyclin D1 protein [1]; serum-stimulated from quiescence in the presence of 4-HT): dramatic reduction
- MAPK activation (MAPK (ERK1/2)): MAPK activation

Compound: CCC(=C/[C@H](C)C/C=C/C(C)=C/[C@@H](C)C(=O)[C@@H](C)[C@H](O)[C@@H](C)C/C(C)=C/C(=O)O)/C=C/[C@@H]1OC(=O)C=C[C@@H]1C [Leptomycin B]
- polyubiquitinated cyclin D1 bands in the nucleus ([2]; LMB 3 hours, then MG132 for an hour, nuclear fraction): did not enhance these bands significantly

Compound: [Cl-].[Li+] [LiCl]
- total cyclin D1 expression and its phosphorylated protein ([3]; HA-WT CD1 SW480 cells, 24 hours of treatment): no significant difference
- effect of adding LiCl to U0126 on cyclin D1 ([3]; HA-WT cyclin D1 SW480 cells, U0126 combined with LiCl): little enhancement
- phosphorylated forms of GSK3α/β (GSK3α/β): disappeared

Compound: CC(C)C[C@@H](C=O)NC(=O)[C@H](CC(C)C)NC(=O)[C@H](CC(C)C)NC(=O)OCc1ccccc1 [MG132] (Cbz-Leu-Leu-Leu-aldehyde)
- cyclin D1 protein accumulation, G1 versus S phase (cyclin D1 protein [4]): no difference between the G1 and S phase
- cyclin D1 protein accumulation during G1 phase (cyclin D1 protein [5]): no significant accumulation
- cyclin D1 protein accumulation in S phase (cyclin D1 protein [5]): accumulated significantly
- reduced mobility (polyubiquitinated cyclin D1) bands ([2]; 25 μM MG132 for an hour): enhanced further
- cyclin D1 protein accumulation, G1 versus S phase (cyclin D1 protein [6]): no remarkable different

Compound: N#CC(=C(/N)Sc1ccccc1N)/C(C#N)=C(\N)Sc1ccccc1N [U0126]
- MAPK activity (MEK/MAPK [7]; HA-WT cyclin D1 SW480 cells, U0126 24 hours (FIG. 8 Panel B)): completely inhibited
- phosphorylated ERK (MEK/MAPK [7]; SW480 cells, 24 hours after exposure): disappeared
- MAPK activities (pERK) (MEK/MAPK [8]; [14]): significantly inhibited
- phosphorylated form of ERK (pERK) (MEK/MAPK [8]; [15]): significantly depleted
- ectopic expression of cyclin D1 T286A protein ([3]; HA-CD1 T286A SW480 cells, U0126): did not accumulate
- cyclin D1 expression (ectopic HA-WT) [3, 16]: dramatic induction
- ratio of phosphorylated cyclin D1 at Thr286 to total cyclin D1 [3, 16]: significant reduction
- cell cycle profile [9]: without affecting
- phosphorylation status of cyclin D1 at Thr286 (pThr286) [10, 14]: significantly inhibited
- level of total cyclin D1 [10, 15]: not changed
- phosphorylation of cyclin D1 at Thr286 (pThr286) [10, 15]: dramatic reduction
- half-life of cyclin D1 protein (T1/2) (cyclin D1 protein [11]): 60.3 min
- association of cyclin D1 with the E3 ligase FBXW8 [12]: significant decrease
- half-life of cyclin D1 protein (cyclin D1 protein [13]): 54.6 min
